# Assays:
# [1] = Feeding of 1.0% CLA diet to rats for four weeks: growth and weight of organs; format: in vivo, Sprague-Dawley male rats; details: 1.0% CLA in diet, 4 weeks
# Source text: (§1) Sprague-Dawley male rats of four weeks of age were pre-bred, and then divided into two groups (each group consisting of 8 rats), a 1.0% linoleic acid group (a control group) and a 1.0% CLA group. The experimental diet shown in Table 1 and water were then freely fed to these two groups of rats. […] Four weeks after the initiation of feeding, the 8 rats constituting each group were sacrificed, and the organs were taken out.
# [2] = test system: carnitine palmitoyltransferase (CPT); assay: Carnitine palmitoyltransferase (CPT) activity in brown adipose tissues of rats fed CLA; format: in vivo, Sprague-Dawley male rats; details: 1.0% CLA in diet, 4 weeks
# Source text: as §1
# Further, the activity of carnitine palmitoyltransferase (CPT) as a rate-determining enzyme in β-oxidation of fatty acids was measured in brown adipose tissues.
substance,measurement,setting,value
conjugated linoleic acid [CLA],"Food intake, in words, compared with 1.0% linoleic acid control group",[1],without affecting
same,"Weight gain, in words, compared with 1.0% linoleic acid control group",[1],without affecting
same,"Weight of adipose tissues around the kidney (white adipose tissues), in words, compared with control group",[1],significantly decreased
same,"Weight of brown adipose tissues in the back, in words, compared with control group",[1],significantly increased
same,Weight of organs: Brain,[1],0.38 g/100 g body weight
same,Weight of organs: Brown adipose tissue,[1],0.21 g/100 g body weight
same,Weight of organs: Epididymal adipose tissue,[1],1.17 g/100 g body weight
same,Weight of organs: Heart,[1],0.36 g/100 g body weight
same,Weight of organs: Kidney,[1],0.78 g/100 g body weight
same,Weight of organs: Liver,[1],4.40 g/100 g body weight
same,Weight of organs: Lung,[1],0.40 g/100 g body weight
same,Weight of organs: Spleen,[1],0.22 g/100 g body weight
same,"Weight of tissues of liver, kidney, heart, lungs, spleen and brain, in words, compared with control group",[1],no difference
same,Food intake,[1]; free feeding,21.0 g/day
same,Weight gain,[1]; free feeding,227 g/4 weeks
same,Weight of organs: Peri-renal adipose tissue,[1]; white adipose tissue,1.16 g/100 g body weight
same,"Activity of carnitine palmitoyltransferase (CPT) in brown adipose tissues, in words, compared with control group",[2],higher
